From patent US11046672B2, “Indolinones compounds and their use in the treatment of fibrotic diseases” (RESPIVERT LIMITED, priority 2015, dated 2021)
“And” between values parts separate entries of the source, which are not always exact repeats. Equal entries are not always repeated. Where two headings read alike, the source gives them in different places.

How the values were obtained:
PDGFRβ [1] = molecular target: T1, PDGFRβ (Homo sapiens (Human), UniProt P09619); experiment: Duration of action (washout) against PDGF-BB induced phosphorylation of PDGFRβ in human fetal lung fibroblast cells; type: cell-based; settings: MRC-5 cells, after wash-out, rhuPDGF-BB; experiments in Groups 1-4
PDGFRβ [2] = molecular target: T1, PDGFRβ; settings: read-out: Ki PDGFRβ; mean, n = 2 unless otherwise indicated
PDGFRβ [3] = molecular target: T1, PDGFRβ; experiment: PDGF-BB induced phosphorylation of PDGFRβ in fibroblasts (MRC5 cells, HTRF); type: cell-based; settings: MRC5 cells; n = 1 unless otherwise indicated; read-out: PDGFBB-induced PDGFRβ phosphorylation in MRC5 cells (IC50)
MRC5 cells = experiment: Cell viability assay in MRC5 cells (MTT)
[4] = Pharmacokinetic measurements in rats (intravenous and intra-tracheal dosing); type: in vivo; settings: rat; for concentration at 6 h / concentration at 0.1 h / concentration at 1.5 h / concentration at 24 h: lung, read-out: lung concentration (nM) at time (h)
PAMPA permeability assay = type: in vitro ADME; settings: for Papp at 5 h, 10 μM: pH 7, pH 7, 10 μM
[5] = male, CD, iv, i.v. dosing, 0.1 h
[6] = male, CD, iv, i.v. dosing, 1.5 h
[7] = male, CD, iv, i.v. dosing, 24 h
[8] = male, CD, other: intra-tracheal, i.t. dosing, 0.1 h
[9] = male, CD, other: intra-tracheal, i.t. dosing, 1.5 h
[10] = male, CD, other: intra-tracheal, i.t. dosing, 24 h
[11] = male, CD, lung/plasma, iv, i.v. dosing, 0.1 h, read-out: lung/plasma ratio at time(h)
[12] = male, CD, lung/plasma, iv, i.v. dosing, 1.5 h, read-out: lung/plasma ratio at time(h)
[13] = male, CD, lung/plasma, other: intra-tracheal, i.t. dosing, 0.1 h, read-out: lung/plasma conc ratio at time(h)
[14] = male, CD, lung/plasma, other: intra-tracheal, i.t. dosing, 1.5 h, read-out: lung/plasma conc ratio at time(h)

T1 sequence (P09619 33-1106): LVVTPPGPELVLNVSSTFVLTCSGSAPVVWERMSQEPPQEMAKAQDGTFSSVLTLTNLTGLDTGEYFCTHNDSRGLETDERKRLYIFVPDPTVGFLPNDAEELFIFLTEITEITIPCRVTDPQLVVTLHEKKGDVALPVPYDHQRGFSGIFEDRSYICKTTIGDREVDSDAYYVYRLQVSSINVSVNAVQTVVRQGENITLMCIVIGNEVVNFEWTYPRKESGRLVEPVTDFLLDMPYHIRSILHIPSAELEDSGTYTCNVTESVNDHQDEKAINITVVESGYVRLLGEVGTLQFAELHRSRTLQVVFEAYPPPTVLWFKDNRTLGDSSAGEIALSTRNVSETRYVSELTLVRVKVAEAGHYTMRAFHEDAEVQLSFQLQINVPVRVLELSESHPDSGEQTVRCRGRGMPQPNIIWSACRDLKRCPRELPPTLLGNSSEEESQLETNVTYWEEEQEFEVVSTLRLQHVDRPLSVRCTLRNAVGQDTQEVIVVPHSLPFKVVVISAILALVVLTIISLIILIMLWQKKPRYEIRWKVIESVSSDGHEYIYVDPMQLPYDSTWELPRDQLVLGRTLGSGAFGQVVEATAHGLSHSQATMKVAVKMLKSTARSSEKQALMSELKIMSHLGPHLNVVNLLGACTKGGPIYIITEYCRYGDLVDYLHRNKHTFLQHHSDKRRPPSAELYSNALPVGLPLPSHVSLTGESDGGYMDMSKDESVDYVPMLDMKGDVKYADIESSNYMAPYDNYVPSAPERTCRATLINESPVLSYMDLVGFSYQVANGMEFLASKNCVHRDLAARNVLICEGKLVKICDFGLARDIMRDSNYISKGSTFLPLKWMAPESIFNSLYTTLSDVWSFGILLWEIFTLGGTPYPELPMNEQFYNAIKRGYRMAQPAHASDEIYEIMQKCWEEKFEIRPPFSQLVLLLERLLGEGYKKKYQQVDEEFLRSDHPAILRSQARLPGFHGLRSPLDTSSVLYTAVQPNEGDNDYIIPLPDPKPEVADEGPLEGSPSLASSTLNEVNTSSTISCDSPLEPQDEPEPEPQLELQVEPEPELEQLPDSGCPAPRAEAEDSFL

SMILES | % phos: percentage phosphorylation after wash-out relative to maximal phosphorylation (100%) (PDGFRβ [1]) | Ki (PDGFRβ [2]) | IC50 (PDGFRβ [3]) | Cell viability at 100 nM (%) (MRC5 cells) | Cell viability at 300 nM (%) (MRC5 cells) | Cell viability at 1000 nM (%) (MRC5 cells) | concentration at 0.1 h [4, 5] | concentration at 1.5 h [4, 6] | concentration at 24 h [4, 7] | concentration at 0.1 h [4, 8] | concentration at 1.5 h [4, 9] | concentration at 24 h [4, 10] | Kp at 0.1 h [4, 11] | Kp at 1.5 h [4, 12] | Kp at 0.1 h [4, 13] | Kp at 1.5 h [4, 14] | Lung conc i.t./i.v. Ratio at time (h) ([4]; 0.1 h) | Lung conc i.t./i.v. Ratio at time (h) ([4]; 1.5 h) | Lung conc i.t./i.v. Ratio at time (h) ([4]; 24 h) | BAL % administered dose at time (h) ([4]; i.t. dosing, 0.1 h) | also measured
COC(=O)c1cc2c(cc1C)/C(=C(/Nc1ccc(C(=O)NOCCN3CCN(CCO)CC3)cc1)c1ccccc1)C(=O)N2 [Example 7, (Z)-Methyl 3-(((4-((2-(4-(2-hydroxyethyl)piperazin-1-yl)ethoxy)carbamoyl)phenyl)amino)(phenyl)methylene)-5-methyl-2-oxoindoline-6-carboxylate] | 84.7% | 6.6 nM | 10.4 nM | 90.7% | 98% | 86.8% | 329 nM | 172 nM | 30 nM | 2100 nM | 881 nM | 519 nM | 17 | 15 | 233 | 114 | 6 | 5 | 17 | 5.3% | concentration at 6 h ([4]; male, CD, iv, 0.1 mg/kg, i.v. dosing, 6 h): 69 nM; concentration at 6 h ([4]; male, CD, other: intra-tracheal, i.t. dosing, 6 h): 1000 nM; Kp at 6 h ([4]; male, CD, lung/plasma, iv, 0.1 mg/kg, i.v. dosing, 6 h, read-out: lung/plasma ratio at time(h)): 10; Kp at 6 h ([4]; male, CD, lung/plasma, other: intra-tracheal, i.t. dosing, 6 h, read-out: lung/plasma conc ratio at time(h)): 114; Lung conc i.t./i.v. Ratio at time (h) ([4]; 6 h): 15; BAL % administered dose at time (h) ([4]; i.t. dosing, 1.5 h): 0.2%; BAL % administered dose at time (h) ([4]; i.t. dosing, 6 h): 0.3%; BAL % administered dose at time (h) ([4]; i.t. dosing, 24 h): 0.1%; BAL % administered dose at time (h) ([4]; i.v. dosing, 0.1 h): BLQ; BAL % administered dose at time (h) ([4]; i.v. dosing, 1.5 h): BLQ; BAL % administered dose at time (h) ([4]; i.v. dosing, 6 h): BLQ; BAL % administered dose at time (h) ([4]; i.v. dosing, 24 h): BLQ; recovery at 5 hr, 10 μM (PAMPA permeability assay; PAMPA, pH 7, PAMPA, donor and acceptor compartments): 58.1%; Papp at 5 h, 10 μM (PAMPA permeability assay; PAMPA, 5 hr): 0.0245 ×10⁻⁶ cm/s
COC(=O)c1ccc2c(c1)NC(=O)/C2=C(\Nc1ccc(C(=O)NOCCN(C)C)cc1)c1ccccc1 [Example 3, (Z)-Methyl 3-(((4-((2-(dimethylamino)ethoxy)carbamoyl)phenyl)amino)(phenyl)methylene)-2-oxoindoline-6-carboxylate] | 34.6% | 11.4 nM | 7.14 nM | 106% | 85.4% | 67.2% | 719 nM | 325 nM | 28 nM | 6690 nM | 1680 nM | 247 nM | 126 | 315 | 176 | 1430 | 9.3 | 5.2 | 8.8 | 3% | Kp at 24 h ([4]; male, CD, lung/plasma, other: intra-tracheal, i.t. dosing, 24 h, read-out: lung/plasma conc ratio at time(h)): 503; MRT ([4]; male, CD, plasma, iv, i.v. dosing): 3 h; clearance ([4]; male, CD, plasma, iv, i.v. dosing (i.v. dose 0.1-0.5 per compound)): 285 mL/min/kg; Vd ([4]; male, CD, plasma, iv, i.v. dosing, read-out: Vss): 51 L/kg; half-life ([4]; male, CD, plasma, iv, i.v. dosing, read-out: t½ (converted)): 3.1 h; i.t. BAV (%) ([4]; i.t. dosing (i.t. dose 0.1-0.5 per compound)): 325%; BAL % administered dose at time (h) ([4]; i.t. dosing, 1.5 h): 0.3%; BAL % administered dose at time (h) ([4]; i.t. dosing, 24 h): 0.1%; BAL % administered dose at time (h) ([4]; i.v. dosing, 0.1 h): 0.03%; BAL % administered dose at time (h) ([4]; i.v. dosing, 1.5 h): 0.02%; BAL % administered dose at time (h) ([4]; i.v. dosing, 24 h): BLQ; % Recovery (PAMPA permeability assay; PAMPA, donor and acceptor compartments): 76% and 55.3%; Papp at 5 h, 10 μM (PAMPA permeability assay; PAMPA, 5 hr): 0.0384 ×10⁻⁶ cm/s; Mean Papp (PAMPA permeability assay; pH 7, 10 μM, 5 hr): 0.023 10^−6 cm s^−1
